Assay results: patent US11236084B2, “Substituted azaindoline derivatives as NIK inhibitors” (Janssen Pharmaceutica NV, priority 2017, dated 2022)
Like-named read-outs stand apart in the source and are kept apart here.

Columns and labels:
[1] = biological target: recombinant human NF-kappaB-inducing kinase (NIK/MAP3K14) (Homo sapiens, UniProt Q99558); assay: Biological Assay B: inhibition of auto-phosphorylation of recombinant human NIK/MAP3K14 (AlphaScreen), performed at 2 locations; format: biochemical; settings: averaged values
recombinant human NF-kappaB-inducing kinase (NIK/MAP3K14), sequence (Q99558 whole entry): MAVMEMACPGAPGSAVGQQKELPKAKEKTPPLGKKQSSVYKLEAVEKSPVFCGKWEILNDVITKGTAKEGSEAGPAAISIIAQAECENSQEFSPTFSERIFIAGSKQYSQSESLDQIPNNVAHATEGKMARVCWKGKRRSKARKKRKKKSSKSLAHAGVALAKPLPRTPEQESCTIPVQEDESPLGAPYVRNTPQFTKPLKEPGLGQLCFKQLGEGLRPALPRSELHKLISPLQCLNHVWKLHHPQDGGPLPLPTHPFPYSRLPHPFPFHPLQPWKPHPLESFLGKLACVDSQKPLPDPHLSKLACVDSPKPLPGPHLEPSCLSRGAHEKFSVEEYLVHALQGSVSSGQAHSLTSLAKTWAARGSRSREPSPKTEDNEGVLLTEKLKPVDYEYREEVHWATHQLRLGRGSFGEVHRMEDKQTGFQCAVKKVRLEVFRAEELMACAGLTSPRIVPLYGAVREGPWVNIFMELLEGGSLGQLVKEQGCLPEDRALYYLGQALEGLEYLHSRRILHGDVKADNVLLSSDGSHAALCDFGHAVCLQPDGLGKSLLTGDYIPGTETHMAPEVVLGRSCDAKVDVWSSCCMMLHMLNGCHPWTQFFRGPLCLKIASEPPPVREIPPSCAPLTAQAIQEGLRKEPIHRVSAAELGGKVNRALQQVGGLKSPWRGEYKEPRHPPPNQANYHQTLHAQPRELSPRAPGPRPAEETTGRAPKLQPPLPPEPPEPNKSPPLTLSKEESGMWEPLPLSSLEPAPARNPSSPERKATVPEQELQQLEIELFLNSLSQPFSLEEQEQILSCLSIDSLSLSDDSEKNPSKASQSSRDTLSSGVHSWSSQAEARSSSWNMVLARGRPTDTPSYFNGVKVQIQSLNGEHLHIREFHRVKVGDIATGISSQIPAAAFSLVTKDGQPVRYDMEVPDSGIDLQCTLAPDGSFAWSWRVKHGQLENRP
Outline: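 GST-tagged NIK (0.2 nM) auto-phosphorylation with 25 microM ATP in 50 mM Tris pH 7.5, 5 mM MgCl2, 1% DMSO, 1 h at 25° C. Anti-phospho-IKK Ser176/180 AlphaScreen readout; blank-subtracted IC50 from sigmoidal fit. Run at two sites.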

[2] = tested on: P-IKKα levels in L363 (NIK translocated multiple myeloma) cells; assay: Biological Assay C: effect of compounds on P-IKKα levels in L363 (NIK translocated multiple myeloma) cells, performed at 2 locations; format: cell-based, human; settings: averaged values
Experimental: Effect of Compounds on P-IKKα Levels in L363 (NIK Translocated Multiple Myeloma) Cells
All compounds tested were dissolved in DMSO and further dilutions were made in culture medium. Final DMSO concentration was 1% (v/v) in cell assays. The human L363 cells (ATCC) were cultured in RPMI 1640 medium supplemented with GlutaMax and 10% fetal calf serum (PAA). Cells were routinely maintained at densities of 0.2×10^6 cells per ml-1×10^6 cells per ml at 37° C. in a humidified 5% CO2 atmosphere. Cells were passaged twice a week splitting back to obtain the low density. Cells were seeded in 96 well plates (Nunc 167008) at 2×10^6 per ml media in a volume of 75 μl per well plus 25 μl […] recombinant human B-cell activating factor (BAFF/BLyS/TNFSF13B). Seeded cells were incubated at 37° C. in a humidified 5% CO2 atmosphere for 24 hr. Drugs and/or solvents were added (20 μl) to a final volume of 120 μl. Following 2 hr treatment plates were removed from the incubator and cell lysis was achieved by the addition of 30 μl 5× lysis buffer followed by shaking on a plate shaker at 4° C. for 10 min. At the end of this incubation lysed cells were centrifuged at 800×g for 20 min at 4° C. and the lysate was assessed for P-IKKα levels by sandwich immuno-assay carried out in anti-rabbit antibody coated Mesoscale plates. Within an experiment, the results for each treatment were the mean of 2 replicate wells. For initial screening purposes, compounds were tested using an 8 point dilution curve (serial 1:3 dilutions). For each experiment, controls (containing MG132 and BAFF but no test drug) and a blank incubation (containing MG132 and BAFF and 1 μM ADS125117, a test concentration known to give full inhibition) were run in parallel. The blank incubation value was subtracted from all control and sample values. To determine the IC50 a sigmoidal curve was fitted to the plot of % inhibition of control P-IKKα levels versus Log10 compound concentration.
Assay C was performed at 2 different locations.
Data for the compounds of the invention in the above assays are provided in Table A (the values in Table are averaged values over all measurements on all batches of a compound; values as IC50 (nM)). (‘n.c.’ means not calculated: ‘Co.’ means compound)

[3] = location 1, AlphaScreen auto-phosphorylation, read-out: Assay B location 1 IC50
[4] = location 2, AlphaScreen auto-phosphorylation, read-out: Assay B location 2 IC50
[5] = Homo sapiens, L-363, location 1, L363 cells, P-IKKα levels, read-out: Assay C location 1 IC50
[6] = location 1, NIK auto-phosphorylation, AlphaScreen, read-out: Assay B location 1 IC50
[7] = location 2, NIK auto-phosphorylation, AlphaScreen, read-out: Assay B location 2 IC50
[8] = Homo sapiens, L-363, location 2, L363 cells, P-IKKα levels, read-out: Assay C location 2 IC50

SMILES | IC50 [1, 3] | IC50 [1, 4] | other results
COc1cc(S(C)(=O)=O)c(F)cc1Nc1nccc(-c2cnc3c(c2)C(C)(C)CN3)n1 [Compound 342] | – | – | IC50 [1, 6]: 7.9 nM; IC50 [1, 7]: 4.6 nM; IC50 ([2]; Homo sapiens, L-363, 2 h, location 1, P-IKKα levels in L363 cells, 2 hr treatment, read-out: Assay C location 1 IC50): 155 nM
CC(=O)NCc1ccc(C)c(Nc2nccc(-c3cnc4c(c3)C(C)(C)CN4)n2)c1 [Compound 43] | – | – | IC50 [2, 8]: 282 nM
COc1cc(CNC(C)=O)ccc1Nc1nccc(-c2cnc3c(c2)C(C)(CO)CN3)n1 (centres unmarked) [Compound 145] | – | 7.2 nM | IC50 [2, 8]: 324 nM
COc1cc(N2CCOCC2)c(C#N)cc1Nc1nccc(-c2cnc3c(c2)C(C)(CO)CN3)n1 (single isomer, unassigned) [Compound 4S] | – | 2.3 nM | IC50 [2, 5]: ~151 nM
COc1cc(N2CC3(CCOCC3)C2)c(Cl)cc1Nc1nccc(-c2cnc3c(c2)C(C)(CO)CN3)n1 (single isomer, unassigned) [Compound 3S] | 6.7 nM | 1.3 nM | IC50 [2, 5]: 17.3 nM
COc1cc(C(=O)N2CCCCC2)ccc1Nc1nccc(-c2cnc3c(c2)C(C)(CO)CN3)n1 (centres unmarked) [Compound 139] | 6.9 nM | 6.9 nM | IC50 [2, 5]: 166 nM; IC50 [2, 8]: 102 nM
COc1cc(C(=O)N2CCN(C)CC2)ccc1Nc1nccc(-c2cnc3c(c2)C(C)(CO)CN3)n1 (centres unmarked) [Compound 143] | 17 nM | 14.5 nM | IC50 [2, 8]: 224 nM
COc1cc(N2CCOCC2)c(C#N)cc1Nc1nccc(-c2cnc3c(c2)C(C)(CO)CN3)n1 (centres unmarked) [Compound 4] | 10.5 nM | 2.9 nM | IC50 [2, 5]: 138 nM
COc1cc(S(C)(=O)=O)c(F)cc1Nc1nccc(-c2cnc3c(c2)C(C)(CO)CN3)n1 (centres unmarked) [Compound 12] | 5.4 nM | 1.6 nM | IC50 [2, 5]: 26.9 nM
COc1cc(N2CCC(O)CC2)c(Cl)cc1Nc1nccc(-c2cnc3c(c2)C(C)(CO)CN3)n1 (single isomer, unassigned) [Compound 343] | – | – | IC50 [1, 6]: 19.1 nM; IC50 ([2]; location 1, P-IKKα levels in L363 cells, 2 hr treatment, read-out: Assay C location 1 IC50): ~7410 nM
CC1(CO)CNc2ncc(-c3ccnc(Nc4ccc(C(=O)NC5CCOCC5)cc4OC(F)F)n3)cc21 (centres unmarked) [Compound 140] | – | 4.5 nM | IC50 [2, 8]: 1070 nM
COc1cc(C(=O)NC2CCOCC2)ccc1Nc1nccc(-c2cnc3c(c2)C(C)(CC#N)CN3)n1 (centres unmarked) [Compound 147] | – | 4.1 nM | IC50 [2, 8]: 52.5 nM
COc1cc(C(=O)N2CCCCCC2)ccc1Nc1nccc(-c2cnc3c(c2)C(C)(CO)CN3)n1 (centres unmarked) [Compound 141] | – | 10.2 nM | IC50 [2, 8]: 148 nM
COc1cc(C(=O)NC2CCOC2)ccc1Nc1nccc(-c2cnc3c(c2)C(C)(CO)CN3)n1 (centres unmarked) [Compound 137] | – | 5 nM | IC50 [2, 5]: 339 nM; IC50 [2, 8]: 347 nM
Cc1cc(C(=O)NC2CCN(C)CC2)ccc1Nc1nccc(-c2cnc3c(c2)C(C)(C)CN3)n1 [Compound 35] | – | – | IC50 [2, 8]: 851 nM
Cc1cc(C(=O)NC2CCOCC2)ccc1Nc1nccc(-c2cnc3c(c2)C(C)(C)CN3)n1 [Compound 36] | – | – | IC50 [2, 8]: 617 nM
CC(=O)NCc1cccc(Nc2nccc(-c3cnc4c(c3)C(C)(C)CN4)n2)c1C [Compound 42] | – | – | IC50 [2, 8]: 166 nM
COc1cc(OCCN2CCOCC2)c(Cl)cc1Nc1nccc(-c2cnc3c(c2)C(C)(CO)CN3)n1 (centres unmarked) [Compound 340] | – | – | IC50 [1, 7]: 2.6 nM
COc1cc(N2CCOCC2)c(Cl)cc1Nc1nccc(-c2cnc3c(c2)C(C)(CO)CN3)n1 (single isomer, unassigned) [Compound 6R] | 19.1 nM | 27.7 nM | –
COc1cc(N2CC3(CCOCC3)C2)c(F)cc1Nc1nccc(-c2cnc3c(c2)C(C)(CO)CN3)n1 (single isomer, unassigned) [Compound 7R] | 70.8 nM | 19.1 nM | –
CCC1(CCO)CNc2ncc(-c3ccnc(Nc4ccc(C(=O)N5CCC(OC)CC5)cc4OC)n3)cc21 (centres unmarked) [Compound 159] | – | 12.6 nM | –
COc1cc(Cl)ccc1Nc1nccc(-c2cnc3c(c2)C(C)(CO)CN3)n1 (centres unmarked) [Compound 172] | 75.9 nM | 71.6 nM | –
CCC1(CCO)CNc2ncc(-c3ccnc(Nc4ccc(C(=O)NC5CCOCC5)cc4OC)n3)cc21 (centres unmarked) [Compound 158] | – | 15.1 nM | –

Second part, led by results:

IC50 [1, 3] | IC50 [1, 4] | SMILES | other results
4.7 nM | 0.5 nM | COc1cc(N2CCN(C)CC2)c(Cl)cc1Nc1nccc(-c2cnc3c(c2)C(C)(CO)CN3)n1 (centres unmarked) [Compound 267] | IC50 [2, 5]: 28.8 nM
30.9 nM | 17.8 nM | CN1CCC(Oc2ccccc2Nc2nccc(-c3cnc4c(c3)C(C)(CO)CN4)n2)CC1 (centres unmarked) [Compound 246] | IC50 [2, 5]: ~2000 nM
5.4 nM | 1.1 nM | COc1cc(N2CCC(O)CC2)c(Cl)cc1Nc1nccc(-c2cnc3c(c2)C(C)(CO)CN3)n1 (centres unmarked) [Compound 301] | IC50 [2, 5]: 23.4 nM
3980 nM | – | CC1(CO)CNc2ncc(-c3ccnc(Nc4ccccc4S(C)(=O)=O)n3)cc21 (centres unmarked) [Compound 334] | IC50 [2, 5]: > 10000 nM
– | 1.8 nM | COc1cc(N2CC(OC)C2)c(Cl)cc1Nc1nccc(-c2cnc3c(c2)C(C)(CO)CN3)n1 (centres unmarked) [Compound 269] | IC50 [2, 5]: 41.7 nM
6.5 nM | – | COc1cc(S(C)(=O)=O)c(Cl)cc1Nc1nccc(-c2cnc3c(c2)C(C)(CO)CN3)n1 (centres unmarked) [Compound 331] | IC50 [2, 5]: 79.4 nM
~3 nM | 0.4 nM | COc1cc(N2CCC(N(C)C)CC2)c(Cl)cc1Nc1nccc(-c2cnc3c(c2)C(C)(CO)CN3)n1 (centres unmarked) [Compound 277] | IC50 [2, 5]: 23.4 nM
6.8 nM | 2.2 nM | COc1cc(N2CCN(C3CC3)CC2)c(Cl)cc1Nc1nccc(-c2cnc3c(c2)C(C)(CO)CN3)n1 (centres unmarked) [Compound 309] | –
– | 21.9 nM | COc1cc(CCN2CCOCC2)ccc1Nc1nccc(-c2cnc3c(c2)C(C)(CO)CN3)n1 (centres unmarked) [Compound 194] | –
7.8 nM | 1.8 nM | COc1cc(N2CCC(OC)C2)c(Cl)cc1Nc1nccc(-c2cnc3c(c2)C(C)(CO)CN3)n1 (centres unmarked) [Compound 285] | –
– | 2.2 nM | COc1ccc(C#N)cc1Nc1nccc(-c2cnc3c(c2)C(C)(CO)CN3)n1 (centres unmarked) [Compound 190] | –
2690 nM | 1450 nM | CN(C)CCOc1cc(N2CCOCC2)c(Cl)cc1Nc1nccc(-c2cnc3c(c2)C(C)(CO)CN3)n1 (single isomer, unassigned) [Compound 274] | –
– | 30.9 nM | Cc1ccc(OC(F)(F)F)cc1Nc1nccc(-c2cnc3c(c2)C(C)(CO)CN3)n1 (centres unmarked) [Compound 210] | –
45.7 nM | 37.2 nM | COc1cc(OC2CCN(C)C2)ccc1Nc1nccc(-c2cnc3c(c2)C(C)(CO)CN3)n1 (centres unmarked) [Compound 229] | –
7240 nM | 3390 nM | CN(C)CCOc1cc(N2CCOCC2)c(F)cc1Nc1nccc(-c2cnc3c(c2)C(C)(CO)CN3)n1 (single isomer, unassigned) [Compound 286] | –
– | 5 nM | Cc1ccc(C#N)cc1Nc1nccc(-c2cnc3c(c2)C(C)(CO)CN3)n1 (centres unmarked) [Compound 208] | –
– | 32.4 nM | CC1(CO)CNc2ncc(-c3ccnc(Nc4ccccc4F)n3)cc21 (centres unmarked) [Compound 177] | –
3.6 nM | 0.7 nM | COc1cc(N2CCC(N(C)C)CC2)c(Cl)cc1Nc1nccc(-c2cnc3c(c2)C(C)(C)CN3)n1 [Compound 330] | –
4.3 nM | 1.6 nM | COc1cc(C(=O)N2CCC(OC)C2)c(Cl)cc1Nc1nccc(-c2cnc3c(c2)C(C)(C)CN3)n1 (centres unmarked) [Compound 292] | –
155 nM | 155 nM | Cc1cc(N2CCOCC2)c(F)cc1Nc1nccc(-c2cnc3c(c2)C(C)(CO)CN3)n1 (single isomer, unassigned) [Compound 256] | –
– | 32.4 nM | CCOc1ccccc1Nc1nccc(-c2cnc3c(c2)C(C)(CO)CN3)n1 (centres unmarked) [Compound 174] | –
– | 12.6 nM | CC1(CO)CNc2ncc(-c3ccnc(Nc4ccccc4Br)n3)cc21 (centres unmarked) [Compound 176] | –
6.9 nM | 2.5 nM | COc1cc(N2CCN(C)CC2)c(C#N)cc1Nc1nccc(-c2cnc3c(c2)C(C)(CO)CN3)n1 (centres unmarked) [Compound 280] | –
6.9 nM | 4.9 nM | COc1cc(N2CC(C)(O)C2)c(Cl)cc1Nc1nccc(-c2cnc3c(c2)C(C)(CO)CN3)n1 (centres unmarked) [Compound 313] | –
